Measured values as given in article PMC2715282 (Phytochemical analysis : PCA, 2009).

Target: 5-HT7 serotonin receptor (Homo sapiens, UniProt P34969)
Assay: competitive radioligand binding versus [3H]LSD
Assay type: cell-based

5-HT7 serotonin receptor, sequence (P34969 whole entry): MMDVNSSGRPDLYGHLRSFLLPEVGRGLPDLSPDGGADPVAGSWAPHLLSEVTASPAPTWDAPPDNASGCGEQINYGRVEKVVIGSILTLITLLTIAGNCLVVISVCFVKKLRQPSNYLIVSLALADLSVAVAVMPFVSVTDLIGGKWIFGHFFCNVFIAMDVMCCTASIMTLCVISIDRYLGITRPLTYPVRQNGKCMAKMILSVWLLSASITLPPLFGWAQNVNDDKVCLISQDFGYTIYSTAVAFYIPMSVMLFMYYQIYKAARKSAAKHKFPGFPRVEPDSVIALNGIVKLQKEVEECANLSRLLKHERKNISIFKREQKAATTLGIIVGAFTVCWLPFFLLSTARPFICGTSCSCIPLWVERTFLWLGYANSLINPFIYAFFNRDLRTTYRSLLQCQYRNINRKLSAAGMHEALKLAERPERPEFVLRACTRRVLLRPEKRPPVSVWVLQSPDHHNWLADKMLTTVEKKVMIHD

Substance: cimicifugic acid KK [compound 4]
- IC50: 100 µM
